This is an account of results in ChEMBL document CHEMBL1142401, “QSAR modeling of the rodent carcinogenicity of nitrocompounds” (2008).

The structures appear in SMILES notation.

The species named for this test is Rattus norvegicus. Description: Anticarcinogenic activity in rat assessed as induction of tumors per day. The format is functional.
`Nc1nnc(-c2ccc([N+](=O)[O-])o2)s1`: the TD50 came out at 3.12 µmol/kg and the pTD50 was 0.494.
`O=[N+]([O-])c1cccc2cccnc12`: the TD50 is 54.836 µmol/kg and the pTD50 came out at 1.739.
On the same counts, the results for `O=[N+]([O-])c1ccc(-c2nc(N3CCOCC3)c3ccccc3n2)s1` are 14.692 µmol/kg and 1.167.
On the same counts, the results for `CC(=O)Nc1nc(-c2ccc([N+](=O)[O-])o2)cs1` are 28.63 µmol/kg and 1.457.
Take `O=[N+]([O-])c1ccc(-c2nnc(O)o2)o1`: the TD50 came out at 43.682 µmol/kg and the pTD50 is reported as 1.64.
In the case of `O=C1NC(c2ccc([N+](=O)[O-])s2)Nc2ccccc21` (stereo not drawn), the TD50 is 5.558 µmol/kg and the pTD50 turned out to be 0.745.
For `O=[N+]([O-])c1ccc(-c2cnc3ccccn23)o1`, the TD50 was determined as 68.938 µmol/kg and the pTD50 turned out to be 1.838.
Consider `CC(C)=NNc1nc(-c2ccc([N+](=O)[O-])o2)cs1`, for which the TD50 is 22.721 µmol/kg and the pTD50 amounted to 1.356.
On the same counts, the results for `Nc1nc(-c2ccc([N+](=O)[O-])o2)cs1` are 27.699 µmol/kg and 1.442.
For `NC(=O)/C(=C\c1ccc([N+](=O)[O-])o1)c1ccco1`, the TD50 came out at 45.932 µmol/kg and the pTD50 is on record as 1.662.
As to `CC(=O)Nc1nc(NC(C)=O)nc(-c2ccc([N+](=O)[O-])o2)n1`, the TD50 stood at 41.798 µmol/kg and the pTD50 amounted to 1.621.
For `CC(C)(C)c1cc([N+](=O)[O-])cc([N+](=O)[O-])c1OS(C)(=O)=O`, the TD50 came out at 8.357 µmol/kg and the pTD50 is 0.922.
On the same counts, the results for `Cc1cc(C)nc(-c2ccc([N+](=O)[O-])o2)n1` are 11.907 µmol/kg and 1.076.
Regarding `CC(=O)Nc1nnc(-c2ccc([N+](=O)[O-])o2)s1`, the TD50 came to 34.773 µmol/kg and the pTD50 is given as 1.541.
As for `CC(=O)NCc1nc(-c2ccc([N+](=O)[O-])o2)no1`, the TD50 came to 20.62 µmol/kg and the pTD50 was found to be 1.314.
For the compound `CC(C)[N+](=O)[O-]`, the TD50 stood at 3288.692 µmol/kg and the pTD50 is on record as 3.517.
In the case of `CN(C)C/N=c1\[nH]nc(/C=C/c2ccc([N+](=O)[O-])o2)o1`, the TD50 was 73.052 µmol/kg and the pTD50 turned out to be 1.864.
As to `NNc1nc(-c2ccc([N+](=O)[O-])o2)cs1`, the TD50 worked out at 12.51 µmol/kg and the pTD50 stood at 1.097.
As to `CN(C)Nc1nc(-c2ccc([N+](=O)[O-])o2)cs1`, the TD50 turned out to be 1.538 µmol/kg and the pTD50 was 0.187.
For `Nc1nc(N)nc(-c2ccc([N+](=O)[O-])o2)n1`, the TD50 came out at 7.697 µmol/kg and the pTD50 was found to be 0.886.
For `CC(=O)OC(OC(C)=O)c1ccc([N+](=O)[O-])o1`, the TD50 was found to be 431.796 µmol/kg and the pTD50 was 2.635.
With `O=[N+]([O-])c1ccc(-c2nc(NCCO)c3ccccc3n2)s1`, the TD50 was 12.139 µmol/kg and the pTD50 is on record as 1.084.
In the case of `COc1c(Cl)c(Cl)c([N+](=O)[O-])c(Cl)c1Cl`, the TD50 is 65.65 µmol/kg and the pTD50 is given as 1.82.
In the case of `O=C(Nc1nc(-c2ccc([N+](=O)[O-])o2)cs1)C(F)(F)F`, the TD50 was 18.164 µmol/kg and the pTD50 is on record as 1.259.
Consider `Nc1ncc([N+](=O)[O-])s1`, for which the TD50 worked out at 223.922 µmol/kg and the pTD50 came to 2.35.
As to `O=[N+]([O-])c1ccc2c3c(cccc13)CC2`, the TD50 worked out at 30.02 µmol/kg and the pTD50 is on record as 1.48.
Take `Nc1nnc(-c2ccc([N+](=O)[O-])o2)o1`: the TD50 is 13.971 µmol/kg and the pTD50 is on record as 1.145.
On the same counts, the results for `Cl.O=C1OC(CN2CCOCC2)CN1/N=C/c1ccc([N+](=O)[O-])o1` (stereo not drawn) are 8.665 µmol/kg and 0.938.
Turning to `NNc1nc(-c2ccc([N+](=O)[O-])cc2)cs1`, the TD50 worked out at 3.145 µmol/kg and the pTD50 was found to be 0.498.
As to `O=CNc1nc(-c2ccc([N+](=O)[O-])o2)cs1`, the TD50 was 21.195 µmol/kg and the pTD50 came out at 1.326.
`N/C(=N\O)c1ccc([N+](=O)[O-])o1`: the TD50 is 245.455 µmol/kg and the pTD50 is reported as 2.39.
Turning to `O=[N+]([O-])c1ccc2ccc3cccc4ccc1c2c34` [1-NITROPYRENE], the TD50 is 13.468 µmol/kg and the pTD50 is 1.129.
Regarding `COc1ccccc1[N+](=O)[O-]` [2-NITROANISOLE], the TD50 was determined as 69.87 µmol/kg and the pTD50 is recorded as 1.84.
Turning to `Nc1ccc([N+](=O)[O-])cc1` [4-NITROANILINE], the TD50 stood at 65.521 µmol/kg and the pTD50 is 1.816.
With `Cn1cnc([N+](=O)[O-])c1Sc1ncnc2[nH]cnc12` [AZATHIOPRINE], the TD50 is 36.428 µmol/kg and the pTD50 is reported as 1.561.
Turning to `O=C(N[C@H](CO)[C@H](O)c1ccc([N+](=O)[O-])cc1)C(Cl)Cl` [CHLORAMPHENICOL], the TD50 was determined as 860.336 µmol/kg and the pTD50 came out at 2.935.
On to `Cc1ncc([N+](=O)[O-])n1C` [DIMETRIDAZOLE], for which the TD50 is 120.458 µmol/kg and the pTD50 is reported as 2.081.
For `CNc1ccc(N(CCO)CCO)cc1[N+](=O)[O-]` [HC BLUE NO. 1], the TD50 was 1680.55 µmol/kg and the pTD50 was determined as 3.23.
With `Cc1ncc([N+](=O)[O-])n1CCO` [METRONIDAZOLE], the TD50 is 356.989 µmol/kg and the pTD50 came to 2.553.
As to `O=C1NCCN1/N=C/c1ccc([N+](=O)[O-])o1` [NIFURADENE], the TD50 is 23.646 µmol/kg and the pTD50 came out at 1.37.
In the case of `CC1CN(/N=C/c2ccc([N+](=O)[O-])o2)C(=O)N1` (stereo not drawn) [NIFURIMIDE], the TD50 stood at 22.418 µmol/kg and the pTD50 was determined as 1.351.
With `O=CNNc1nc(-c2ccc([N+](=O)[O-])o2)cs1` [NIFURTHIAZOLE], the TD50 was 13.925 µmol/kg and the pTD50 came out at 1.144.
`CCNC(=O)Nc1ncc([N+](=O)[O-])s1` [NITHIAZIDE]: the TD50 came out at 605.88 µmol/kg and the pTD50 came out at 2.78.
With `O=[N+]([O-])c1ccccc1` [NITROBENZENE], the TD50 was 47.681 µmol/kg and the pTD50 turned out to be 1.678.
Turning to `CC[N+](=O)[O-]` [NITROETHANE], the TD50 is 29174.093 µmol/kg and the pTD50 worked out at 4.465.
On the same counts, the results for `O=C1CN(/N=C/c2ccc([N+](=O)[O-])o2)C(=O)N1` [NITROFURANTOIN] are 228.001 µmol/kg and 2.358.
Turning to `NC(=O)N/N=C/c1ccc([N+](=O)[O-])o1` [NITROFURAZONE], the TD50 stood at 32.907 µmol/kg and the pTD50 amounted to 1.517.
On to `O=[N+]([O-])OCC(CO[N+](=O)[O-])O[N+](=O)[O-]` [NITROGLYCERIN], for which the TD50 was 1448.787 µmol/kg and the pTD50 is given as 3.161.
`CCCN(CCC)c1c([N+](=O)[O-])cc(C(F)(F)F)cc1[N+](=O)[O-]` [TRIFLURALIN]: the TD50 worked out at 17567.456 µmol/kg and the pTD50 was 4.245.
